Reference: PubChem BioAssay AID2060499 (Molecular Pharmacology Branch, DTP, NCI, 2025)

Test system: 777334-354-R2-J4-PDC tumor spheroids with HUVEC/MSC, viability
Assay: Anticancer human tumor 777334-354-R2-J4-PDC patient-derived pancreatic adenocarcinoma cell line growth inhibition [GQUAD]
Details: for IC50: curve of first compound; for viability, T/C: stronger effect = lower value
Text: DNA G-quadruplex Stabilizer Agents in Combinations in Complex Spheroids
A high-throughput screen of multi-cell type tumor spheroids was designed to identify active combinations of DNA G-quadruplex stabilizer agents and targeted small molecules. Complex spheroids include a stromal component modeled by human endothelial cells (HUVEC) and fibroblasts modeled by human mesenchymal stem cells (MSCs). The concentration ranges selected for each drug and investigational agent were based upon clinically achievable concentrations if the clinical Cmax of the agent was known.
Compounds. The drugs and investigational agents: pidnarulex (CX-5461; NSC782164), APTO-253 (NSC789042), BRACO-19 (NSC847499), peposertib (NSC802822), ceralasertib (NSC780249), elimusertib (NSC800525), camonsertib (NSC841442), AZD-1390 (NSC803789), olaparib (NSC753686), talazoparib (NSC767125), ART-558 (NSC835418), sotorasib (NSC818433), MRTX-1133 (NSC836407), SN-38 (NSC673596), topotecan (NSC609699), etoposide (NSC141540), doxorubicin (NSC123127), gemcitabine (NSC613327), 5-fluorouracil (NSC19893), paclitaxel (NSC125973), vemurafenib (NSC761431), panobinostat (NSC761190), R-306465 (JNJ-16241199; NSC773264), adavosertib (NSC754352), TP-3654 (NSC805149), carboplatin (NSC241240), KSQ-4279 (NSC840948), and staurosporine (NSC755774) were obtained from the National Cancer Institute (NCI) Developmental Therapeutics Program Chemical Repository (34). The FDA-approved anticancer drug set is available from the NCI Developmental Therapeutics Program. […] The stock solutions were prepared in dimethyl sulfoxide (DMSO, Sigma-Aldrich, St. Louis, MO, cat. D2650) at 800-fold the tested concentration and stored at -70 degrees C prior to their use. All drugs and investigational agents were tested over a range starting from a high concentration at or near the clinical Cmax and decreasing in half-log increments. If the clinical Cmax for an agent had not been determined, the highest concentration tested was 10 microM.
2.3 Cell Culture. All cells were maintained in an incubator at 37 degrees C and 5% CO2 with 95% humidity. The PDC lines were cultured according to standard operating procedures established by the NCI PDMR. All PDCs were thawed and cultured in Matrigel-coated flasks prepared with a working solution of 1X Ham's F-12 nutrient mix, without supplementation (Invitrogen, cat. 11765054), 100 U/mL penicillin-streptomycin (Invitrogen, cat. 15140122), and 2.5% Matrigel (Corning Inc., cat. 354248) for the first three passages. The 857933-349-R-J2-PDC line was cultured in 6C/Colon 1B media, which includes advanced DMEM/F-12 (Thermo Fisher Scientific, cat. 12634028), 10 mM HEPES (Thermo Fisher Scientific, cat. 15630080), 1X GlutaMAX supplement (Thermo Fisher Scientific, cat. 35050061), 0.1 mg/mL primocin (InvivoGen, cat. ant-pm-2), 10% defined fetal bovine serum, heat inactivated (HyClone Laboratories Inc., cat. SH30070.03HI), 50% L-WRN conditioned media (ATCC, cat. CRL-3276), 1.25 mM N-Acetyl-L-cysteine (Sigma-Aldrich, cat. A9165), 10 mM nicotinamide (Sigma-Aldrich, cat. N0636), 1X B-27 supplement (Thermo Fisher Scientific, cat. 17504044), 1X N-2 supplement (Thermo Fisher Scientific, cat. 17502048), 10 microM Y-27632 dihydrochloride (Tocris Bioscience, cat. 1254), and 50 ng/mL human EGF recombinant protein (Thermo Fisher Scientific, cat. PHG0311). The 485176-168-R4-J1-PDC line was cultured in Panc media, which includes all 6C/Colon 1B media components plus 100 ng/mL human FGF-10 (Thermo Fisher Scientific, cat. 100-26), 500 nM SB-431542 (Selleckchem, cat. S1067), and gastrin (Tocris, cat. 3006).
[…]
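Further: spheroids exposed to compounds for 7 days before readout.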

O=C(NO)c1cnc(N2CCN(S(=O)(=O)c3ccc4ccccc4c3)CC2)nc1 + CN(C)c1ccc(Nc2c3ccc(NC(=O)CCN4CCCC4)cc3nc3cc(NC(=O)CCN4CCCC4)ccc23)cc1
IC50 (second compound 0.0316 µM): 926 nM | IC50 (second compound 0.1 µM): 1290 nM | IC50 (second compound 0.316 µM): 1070 nM | IC50 (second compound 1 µM): 852 nM | IC50 (second compound 3.16 µM): 954 nM | IC50 (second compound 10 µM): 1010 nM | viability, T/C (second compound 0.0316 µM, first compound 0.0316 µM): 103% | viability, T/C (second compound 0.0316 µM, first compound 0.1 µM): 89.5% | viability, T/C (second compound 0.0316 µM, first compound 0.316 µM): 79.4% | viability, T/C (second compound 0.0316 µM, first compound 1 µM): 50.8% | viability, T/C (second compound 0.0316 µM, first compound 3.16 µM): 11.1% | viability, T/C (second compound 0.0316 µM, first compound 10 µM): 0.3% | viability, T/C (second compound 0.1 µM, first compound 0.0316 µM): 91.5% | viability, T/C (second compound 0.1 µM, first compound 0.1 µM): 90.6% | viability, T/C (second compound 0.1 µM, first compound 0.316 µM): 83.5% | viability, T/C (second compound 0.1 µM, first compound 1 µM): 62.3% | viability, T/C (second compound 0.1 µM, first compound 3.16 µM): 8.7% | viability, T/C (second compound 0.1 µM, first compound 10 µM): 1.67% | viability, T/C (second compound 0.316 µM, first compound 0.0316 µM): 86.8% | viability, T/C (second compound 0.316 µM, first compound 0.1 µM): 94.7% | viability, T/C (second compound 0.316 µM, first compound 0.316 µM): 76.6% | viability, T/C (second compound 0.316 µM, first compound 1 µM): 54.8% | viability, T/C (second compound 0.316 µM, first compound 3.16 µM): 10.9% | viability, T/C (second compound 0.316 µM, first compound 10 µM): 2.03% | viability, T/C (second compound 1 µM, first compound 0.0316 µM): 84.3% | viability, T/C (second compound 1 µM, first compound 0.1 µM): 80.8% | viability, T/C (second compound 1 µM, first compound 0.316 µM): 62.5% | viability, T/C (second compound 1 µM, first compound 1 µM): 54.2% | viability, T/C (second compound 1 µM, first compound 3.16 µM): 12% | viability, T/C (second compound 1 µM, first compound 10 µM): 0.73% | viability, T/C (second compound 3.16 µM, first compound 0.0316 µM): 86.3% | viability, T/C (second compound 3.16 µM, first compound 0.1 µM): 72.1% | viability, T/C (second compound 3.16 µM, first compound 0.316 µM): 65.9% | viability, T/C (second compound 3.16 µM, first compound 1 µM): 54% | viability, T/C (second compound 3.16 µM, first compound 3.16 µM): 10.9% | viability, T/C (second compound 3.16 µM, first compound 10 µM): 0.96% | viability, T/C (second compound 10 µM, first compound 0.0316 µM): 66% | viability, T/C (second compound 10 µM, first compound 0.1 µM): 65.3% | viability, T/C (second compound 10 µM, first compound 0.316 µM): 63.1% | viability, T/C (second compound 10 µM, first compound 1 µM): 50.4% | viability, T/C (second compound 10 µM, first compound 3.16 µM): 11.1% | viability, T/C (second compound 10 µM, first compound 10 µM): 0.95%
